From ChEMBL document CHEMBL1201862, “PubChem BioAssay data set” (2004) come the findings set out here.

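Briefly, cells in 96-well plates were exposed to five compound concentrations for 48 h, and endpoints were estimated by linear interpolation. GI50 marks 50% less growth.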 Active and inactive are the calls of the source. Rule as the data show it: active = GI50 up to about 1.1 µM and inactive = higher.

Among the test systems are HCT-15; LOX IMVI; HCT-116; COLO 205; K562; SK-OV-3; SF-295; EKVX; HT-29; NCI-H460; 786-0; SF-539; OVCAR-3; HOP-92; A549; OVCAR-4; UO-31.
Holding throughout (test): DTP human tumour cell line panel, 48 h

Usually GI50 stands for the concentration that inhibits growth by half. Turning to `CN(/N=C/c1cccc2cccnc12)c1ccc([N+](=O)[O-])cc1`, the GI50 with HCT-15 is greater than 100 µM; with LOX IMVI it was > 100 µM (inactive); in the assay on HCT-116, > 100 µM (inactive); in the assay on COLO 205 it was > 100 µM (inactive); with K562, > 100 µM (inactive); in the assay with SK-OV-3, 43.1 µM (inactive). In addition, the GI50 was > 100 µM (inactive) in the assay with SF-295; > 100 µM (inactive) with EKVX; 20.7 µM (inactive) in the assay with HT-29; 8.07 µM (inactive) with NCI-H460; > 100 µM (inactive) in the assay with 786-0; 7.69 µM (inactive) in the assay on SF-539. Moreover, the GI50 in the assay with OVCAR-3 was > 100 µM (inactive); in the assay with HOP-92, > 100 µM (inactive); in the assay with A549, 48.1 µM (inactive).
For the molecule `CCOc1cccc2nc3cccc(C(=O)NCCN(C)C)c3nc12`, the GI50 in the assay on HCT-15 is 1.08 µM; with LOX IMVI it was 0.48 µM (active); in the assay with HCT-116, 0.447 µM (active); in the assay with COLO 205, 0.632 µM (active); with K562 it was 0.47 µM (active); with SK-OV-3, 7.43 µM (inactive). For the same molecule, the GI50 is 1.19 µM (inactive) in the assay with OVCAR-4; 1.53 µM (inactive) in the assay with SF-295; 2.25 µM (inactive) in the assay with EKVX; 0.605 µM (active) in the assay on HT-29; 2.51 µM (inactive) in the assay with 786-0; 1.14 µM (inactive) with SF-539. Also, the GI50 is 2.19 µM (inactive) in the assay with UO-31, 1.6 µM (inactive) in the assay with OVCAR-3, 1.39 µM (inactive) in the assay with HOP-92 and 0.942 µM (active) with A549.
`COc1ccc(NC(=O)C2C(=O)N(c3ccc(OC)cc3)C(=O)/C2=N\N)cc1` (centres undefined): the GI50 with HCT-15 is greater than 100 µM; with HCT-116, > 100 µM (inactive); with COLO 205, > 100 µM (inactive); with K562, 65 µM (inactive); with SF-295, > 100 µM (inactive); in the assay with EKVX, > 100 µM (inactive). Besides, the GI50 in the assay with HT-29, with NCI-H460, in the assay on 786-0, in the assay with SF-539, in the assay with UO-31 and in the assay on HOP-92 was > 100 µM (inactive) throughout. Also, in the assay on A549, the GI50 was > 100 µM (inactive).
For the molecule `c1ccc2c(c1)N=C(c1ccc3ccccc3c1)CC(c1cccc3ccccc13)S2` (centres undefined), the 50% growth inhibitory concentration (GI50) in the assay with HCT-15 was 21.3 µM; with LOX IMVI, 25.3 µM (inactive); with COLO 205 it was 68.7 µM (inactive); in the assay on K562, 17.2 µM (inactive); with SK-OV-3 it was > 100 µM (inactive); in the assay with OVCAR-4, 33.6 µM (inactive). Moreover, the GI50 in the assay with SF-295 was 47.1 µM (inactive); in the assay with EKVX, 61.4 µM (inactive); in the assay on HT-29, 30.2 µM (inactive); in the assay with NCI-H460 it was 29.6 µM (inactive); in the assay with 786-0, 44.1 µM (inactive); in the assay with SF-539, 51.6 µM (inactive). Moreover, the GI50 in the assay on UO-31 is 59.7 µM (inactive); in the assay on OVCAR-3, 33 µM (inactive); in the assay with A549, 48 µM (inactive).
For `Clc1ccc(SCCSCCCCCCCCCCSCCSc2ccc(Cl)cc2)cc1`, the GI50 in the assay with HCT-15 is greater than 100 µM; in the assay with LOX IMVI, > 100 µM (inactive); with COLO 205, > 100 µM (inactive); in the assay on K562, > 100 µM (inactive); in the assay with SK-OV-3, > 100 µM (inactive); in the assay on SF-295, > 100 µM (inactive). Also, the GI50 with EKVX, in the assay on HT-29, in the assay on NCI-H460, in the assay on 786-0, with SF-539 and in the assay on UO-31 was > 100 µM (inactive) throughout. In addition, the GI50 in the assay on OVCAR-3, in the assay with HOP-92 and in the assay with A549 was > 100 µM (inactive) in each case.
Regarding `CC(C)CCC[C@@H](C)[C@H]1CC[C@H]2[C@@H]3CC=C4CC(OCCCCN(O)CCCSC5OC(CO)C(O)C(O)C5O)CC[C@]4(C)[C@H]3CC[C@]12C` (some centres undefined), the GI50 was 43.4 µM with HCT-15; 21.8 µM (inactive) with LOX IMVI; 56.1 µM (inactive) with HCT-116; 25.6 µM (inactive) with COLO 205; 36.3 µM (inactive) in the assay on K562; > 100 µM (inactive) with SK-OV-3. Further, the GI50 in the assay with OVCAR-4 was > 100 µM (inactive); in the assay with SF-295, > 100 µM (inactive); with EKVX it was > 100 µM (inactive); in the assay with HT-29, 30.4 µM (inactive); with NCI-H460 it was 39.9 µM (inactive); in the assay with 786-0, 18 µM (inactive). Besides, the GI50 is 18.8 µM (inactive) in the assay on SF-539, > 100 µM (inactive) in the assay on UO-31, > 100 µM (inactive) with HOP-92 and 42.2 µM (inactive) with A549.
For `CC(=O)OCCOCNC(=S)N/N=C/c1ccc2ccccc2n1`, the GI50 in the assay with HCT-15 was 29.8 µM; in the assay on LOX IMVI, 43 µM (inactive); with HCT-116 it was 42.2 µM (inactive); with COLO 205 it was 26.5 µM (inactive); in the assay on K562 it was 53.2 µM (inactive); in the assay on SK-OV-3, 43.1 µM (inactive). Besides, the GI50 was 63 µM (inactive) in the assay on OVCAR-4; 44.6 µM (inactive) in the assay on SF-295; 32.7 µM (inactive) in the assay on EKVX; 40.6 µM (inactive) in the assay on HT-29; 27.5 µM (inactive) in the assay on NCI-H460; 39.4 µM (inactive) in the assay with 786-0. In addition, the GI50 was 46.9 µM (inactive) with SF-539, 31.2 µM (inactive) in the assay with UO-31, 35.3 µM (inactive) in the assay with OVCAR-3 and 33 µM (inactive) in the assay on A549.
On to `CN(C)c1nc(N(C)c2ccccc2)[s+]s1`, for which the GI50 in the assay with HCT-15 is 54.3 µM; in the assay with HCT-116, 41.7 µM (inactive); in the assay on K562, 35.1 µM (inactive); in the assay with SK-OV-3 it was > 100 µM (inactive); in the assay on OVCAR-4 it was > 100 µM (inactive); in the assay with SF-295, 78.3 µM (inactive). Further, the GI50 in the assay on EKVX is > 100 µM (inactive); with HT-29, 89.5 µM (inactive); in the assay on NCI-H460 it was 16.7 µM (inactive); in the assay with 786-0 it was 51.5 µM (inactive); in the assay on SF-539, 57.9 µM (inactive); in the assay on UO-31, 99.1 µM (inactive). Also, the values for the GI50 with HOP-92 and in the assay with A549 were > 100 µM (inactive) and 53.3 µM (inactive), respectively.
In the case of `CCOC(=O)C1(Br)C(c2ccccc2)NC(=O)NC1(C)Br` (centres undefined), the GI50 is greater than 100 µM in the assay on HCT-15; 38.3 µM (inactive) with LOX IMVI; 60.4 µM (inactive) with HCT-116; 65.3 µM (inactive) in the assay on COLO 205; 39.8 µM (inactive) in the assay on K562; > 100 µM (inactive) in the assay with SK-OV-3. Moreover, the GI50 with SF-295 was > 100 µM (inactive); in the assay with EKVX it was 95.3 µM (inactive); in the assay on HT-29, > 100 µM (inactive); in the assay with NCI-H460, > 100 µM (inactive); in the assay on 786-0 it was 38.3 µM (inactive); in the assay with UO-31, > 100 µM (inactive). Besides, the GI50 is 62.5 µM (inactive) with OVCAR-3, > 100 µM (inactive) in the assay with HOP-92 and > 100 µM (inactive) with A549.
As to `C=C1CCCC2OC(OC)CCC12` (centres undefined), the GI50 with HCT-15 is greater than 100 µM; in the assay on HCT-116, > 100 µM (inactive); in the assay with COLO 205, > 100 µM (inactive); in the assay on K562, > 100 µM (inactive); with SK-OV-3 it was > 100 µM (inactive); in the assay with OVCAR-4, > 100 µM (inactive). The GI50 in the assay with SF-295, in the assay with EKVX, with HT-29, with NCI-H460, in the assay on 786-0 and in the assay with SF-539 was > 100 µM (inactive) in each case. In addition, the GI50 in the assay on UO-31, in the assay on OVCAR-3, in the assay on HOP-92 and in the assay on A549 was > 100 µM (inactive) in each case.
On to `CC1(C(=O)O)CCOc2ccccc21` (centres undefined), for which the GI50 in the assay on HCT-15 was greater than 100 µM; in the assay with LOX IMVI, > 100 µM (inactive); with HCT-116 it was > 100 µM (inactive); in the assay with COLO 205, > 100 µM (inactive); in the assay with K562 it was > 100 µM (inactive); with OVCAR-4, > 100 µM (inactive). The GI50 with SF-295, in the assay with EKVX, with HT-29, in the assay with NCI-H460, in the assay on 786-0 and in the assay with SF-539 was > 100 µM (inactive) in each case. Also, the GI50 in the assay on UO-31, in the assay with OVCAR-3, in the assay with HOP-92 and in the assay on A549 was > 100 µM (inactive) in each case.
Take `C=CCC1[C@@H](C(C)(C)C(C(C)=O)C(=O)C(=O)OC)OC(C(C)(C)C)N1C(=O)OC` (some centres undefined): the GI50 in the assay on HCT-15 is greater than 100 µM; with HCT-116, 47.4 µM (inactive); in the assay with COLO 205, > 100 µM (inactive); in the assay on K562, 40.6 µM (inactive); with SK-OV-3 it was > 100 µM (inactive); in the assay with OVCAR-4, > 100 µM (inactive). The GI50 in the assay with SF-295, in the assay with EKVX, with HT-29, with NCI-H460, in the assay with 786-0 and with SF-539 was > 100 µM (inactive) in each case. Further, the GI50 in the assay on UO-31 is > 100 µM (inactive); in the assay with OVCAR-3, > 100 µM (inactive); in the assay on HOP-92, 48.5 µM (inactive); in the assay on A549, > 100 µM (inactive).
In the case of `COc1cc2c(c(OC)c1OC)-c1ccc(OC)c(=O)cc1[C@@H](N(C)C=O)CC2`, the GI50 was 0.0752 µM in the assay on HCT-15; 0.0249 µM (active) with LOX IMVI; 0.0173 µM (active) in the assay with HCT-116; 0.0129 µM (active) in the assay on COLO 205; 0.0128 µM (active) with K562; 1.37 µM (inactive) in the assay on OVCAR-4. Also, the GI50 in the assay with SF-295 is 0.0146 µM (active); in the assay with EKVX it was 9.2 µM (inactive); in the assay on HT-29, 0.0156 µM (active); in the assay with NCI-H460, < 0.0179 µM (active); in the assay on 786-0, 0.0277 µM (active); with SF-539 it was 0.0148 µM (active). For the same molecule, the GI50 with UO-31 was 0.752 µM (active); with OVCAR-3, 0.0112 µM (active); with HOP-92, 0.0137 µM (active); in the assay on A549 it was 0.0246 µM (active).
